# Results from patent US20120015399A1, “FLUORESCENT SOLVATOCHROMIC PIGMENT” (National University Corporation Hokkaido University, priority 2009, published 2012).
# Columns and labels:
# [1] = Fluorescence emission in water in the presence of additives (lecithin, β-cyclodextrin, Triton X-100, CTAB, SDS); assay type: physicochemical; conditions: additives in deionized water, excitation 488 nm, FIG. 5
# Method: After adding 5 milliliters of deionized water, the mixtures were sonicated with ultrasound for 20 seconds. The supernatant solution was irradiated with light at 488 nm, and the light emitted was measured using a fluorescence spectrophotometer (F-4500). […] After adding 5 milliliters of deionized water, the mixtures were sonicated with ultrasound for 20 seconds. The supernatant solution was irradiated with light at 450 nm, and the light emitted was measured using a fluorescence spectrophotometer (F-4500).
# [2] = system: macrophage cells (RAW264); test: Staining of macrophage cells, confocal laser fluorescence microscopy; assay type: cell-based; conditions: stain solution in calf serum/D-MEM 1:9, fifteen minutes, 37° C., argon laser 488 nm, FIG. 9
# Method: In the present Example, macrophage cells were stained using the pyridinium derivatives shown in Table 1 and the differences in cell staining were compared in order to investigate the effects of the alkyl chain lengths in R^7 and R^8.
# Several micrograms of each pyridinium derivative (Compounds 10 and 21 to 23) were added to 10 milliliters of a liquid medium obtained by mixing calf serum and D-MEM base medium in a 1:9 ratio. The mixtures were left standing in a refrigerator overnight to dissolve the solids. 5 milliliters of the supernatant solutions were removed the next day and were used as cell staining solutions after filtering the solutions through sterilizing membrane filters with a pore diameter of […] p.m.
# The macrophage cells (RAW264 of ATCC Co., Ltd.) were floated in HydroCell dishes manufactured by Cell Seed Co., Ltd. using a liquid culture obtained by mixing calf serum and D-MEM base medium in a 1:9 ratio.
# The media were removed from the glass bottom dishes on which the RAW264 cells were supported, and 0.2 ml of each stain solution was added. The cells were stained by leaving the dish standing for fifteen minutes in a CO2 incubator at 37° C. The stain solutions were subsequently removed, and the media were exchanged three times using a liquid medium obtained by mixing calf serum and D-MEM base medium in 1:9 ratio. […] The results are shown in terms of fluorescence microscopic images (FIG. 9).
# [3] = system: human fetus kidney-derived HEK293 cells; test: Staining of HEK293 cells, location of dye and emitted light wavelength; assay type: cell-based; conditions: stain solution in calf serum/D-MEM 1:9, fifteen minutes, 37° C., argon laser 488 nm, FIG. 10
# Method: In the present Example, human fetus kidney-derived HEK293 cells were stained using Compound 10, and the location of the dye and emitted light wavelength were examined.
# Several micrograms of Compound 10 was added to 10 milliliters of a liquid medium obtained by mixing calf serum and D-MEM base medium in a 1:9 ratio. The mixture was left standing in a refrigerator overnight to dissolve the solids. 5 milliliters of the supernatant solution was removed the next day and was used as a cell staining solution after filtering the solution through a sterilizing membrane filter with a pore diameter of […]
# The human fetus kidney-derived cells HEK293 (Riken Cell Bank) were cultured in a five milliliter culture flask using a liquid culture obtained by mixing calf serum and D-MEM base medium in a 1:9 ratio. The solution was used to inoculate a glass bottom dish.
# The medium was removed from the glass bottom dish on which the HEK293 cells were supported, and 0.2 ml of the stain solution was added. The cells were stained by leaving the dish standing for fifteen minutes in a CO2 incubator at 37° C. The stain solution was subsequently removed, and the medium was exchanged three times using a liquid medium obtained by mixing calf serum and D-MEM base medium in a 1:9 ratio.
# [4] = Absorption spectra of thiophene derivatives in solvents of different polarity; assay type: physicochemical; conditions: for Molar absorption coefficient: at maximum absorption wavelength
# Method: (§1) In the present Example, the thiophene derivatives (Compounds 3 to 6) obtained in Synthesis Examples 1 and 2 were dissolved in a variety of solvents with different polarity, and the absorption and the fluorescent spectra were measured.
# Now, the solvent polarity ET(30) (kcal/mole) was obtained by dissolving the betaine dye of the following formula that is a light absorbing solvatochromic dye in each solvent and incorporating the maximum absorption wavelength, λ (nm), into the equation ET(30)=28591/λ.
# The thiophene derivative solutions were prepared by using a standard solvent for spectral measurement (Wako Pure Chemical Industries, Ltd.) in concentrations of from […] to 1.2×10^−5M, and absorptions were measured with a visible/ultraviolet spectrophotometer (V-560 UV/VIS Spectrophotometer manufactured by JASCO Corporation). The maximum absorption wavelength (nm) is shown in Table 2, and the molar absorption coefficient (mol^−1cm^−1) at the maximum absorption wavelength is shown in Table 3. The numbers in the tables indicate compound numbers.
# [5] = Fluorescence spectra of thiophene derivatives in solvents of different polarity; assay type: physicochemical
# Method: as §1
# Next, fluorescence spectra of the thiophene derivatives were measured. The fluorescence spectra were measured using the same samples used for the absorption spectra and using a fluorescence spectrophotometer (F-4500 manufactured by Hitachi Ltd.)
# The numbers in the table indicate compound numbers.
# [6] = system: human colon cancer cell T84; test: Staining of cultured cells, confocal laser fluorescence microscopy; assay type: cell-based
# Method: In the present Example, Compound 7 was introduced into cultured human colon cancer cell T84 and its image was observed using a fluorescence microscope.
# Human colon cancer cell T84 culture (cell stock-microbial stock-gene bank (ATCC) number CCL-248, supplied by Summit Pharmaceuticals International Corporation) in a sub-confluent state that had been cultured (37° C., 5% CO2) for two to four days in a glass bottom dish (35 mm, Matsunami Glass Ind., Ltd.) was washed with phosphoric acid buffered physiological saline solution. One hundred microliters of a DMSO solution of 2×10^−5 M of Compound 7 was added dropwise near the cells, and a reaction was allowed to occur for five minutes at room temperature. The cells were washed again using phosphoric acid buffered physiological saline solution and were immediately exposed to an argon laser (488 nm) to reach an excited state in the phosphoric acid buffered physiological saline solution. The response was observed using a confocal laser microscope (LSM510META manufactured by Carl Zeiss).
# In the present Comparative Example, the compound shown below described in Reference 3 (Japanese Patent Application Public Disclosure No. 2008-291210) was used in place of Compound 7, and the fluorescence microscope images of the cultured human colon cancer cell T84 were examined in the manner described in Example 5.
# [7] = Fluorescence colour in aqueous synthetic detergent solutions of different pH; assay type: physicochemical; conditions: blue light 450 nm
# Method: In the present Example, Compound 6 was dissolved in aqueous synthetic detergent solutions having different pH values and the fluorescence was measured.
# Compound 6 (0.1 g each) obtained in Synthesis Example 2 was placed in three test tubes, and 10 ml each of deionized water and one drop of weakly acidic “Biore” (liquid detergent of Kao Corporation), “COOP K Soft” (liquid detergent of Cope Green K.K.) or “My Pet” (liquid detergent of Kao Corporation) were added. Aqueous solutions of Compound 6 were obtained by dissolving the compound using ultrasonic irradiation. The solutions were irradiated with blue light (450 nm) using a full color LED flash light (MFL 143-FB manufactured by Anteya Technology Corporation). The fluorescent color observed was orange in a weakly acidic environment (pH=5), red in a neutral environment […] and crimson in a weakly alkaline environment (pH=8).
# [8] = 1,4-Dioxane, solvent polarity ET(30) 36.0
# [9] = Acetone, solvent polarity ET(30) 42.2
# [10] = DMSO, solvent polarity ET(30) 45.1
# [11] = Comparative Example 1, blue diode laser 405 nm, FIG. 11
"Maximum absorption wavelength [4, 8] [nm]","Maximum absorption wavelength [4, 9] [nm]","Maximum absorption wavelength [4, 10] [nm]","Molar absorption coefficient ([4]; 1,4-Dioxane, ET(30) 36.0)","Molar absorption coefficient ([4]; Acetone, ET(30) 42.2)","Molar absorption coefficient ([4]; DMSO, ET(30) 45.1)","Maximum fluorescence emission wavelength ([5]; 1,4-Dioxane, ET(30) 36.0) [nm]","Maximum fluorescence emission wavelength ([5]; Acetone, ET(30) 42.2) [nm]","Maximum fluorescence emission wavelength ([5]; DMSO, ET(30) 45.1) [nm]",SMILES,Cell staining pattern [2],other results
387,385,395,"33,000 mol^−1cm^−1","33,000 mol^−1cm^−1","31,000 mol^−1cm^−1",459,488,507,"CCCCCCN(CCCCCC)c1ccc(-c2ccc(-c3ccccn3)s2)cc1 [Compound 4, N,N-dihexyl-4-[5-(pyridine-2-yl)thiophene-2-yl]aniline]",,
490,501,497,"26,000 mol^−1cm^−1","36,000 mol^−1cm^−1","36,000 mol^−1cm^−1",568,639,653,"CCCCCCN(CCCCCC)c1ccc(-c2ccc(-c3cc[n+](C)cc3)s2)cc1.[I-] [Compound 6, 4-[5-(4-dihexylamino)phenyl]thiophene-2-yl-1-methylpyridinium iodide]",,"Excitation by commonly encountered argon lasers (488 nm) [4]: could be efficiently excited; Absorption and emission wavelengths, compared ([5]; versus Compounds 3 to 5): significantly longer absorption and emission wavelengths than Compounds 3 to 5; Fluorescent color observed ([7]; neutral environment (pH=6)): red; Fluorescent color observed ([7]; weakly acidic environment (pH=5)): orange; Fluorescent color observed ([7]; weakly alkaline environment (pH=8)): crimson"
389,391,401,"31,000 mol^−1cm^−1","33,000 mol^−1cm^−1","32,000 mol^−1cm^−1",467,507,522,"CCCCCCN(CCCCCC)c1ccc(-c2ccc(-c3ccncc3)s2)cc1 [Compound 3, N,N-dihexyl-4-[5-(pyridine-4-yl)thiophene-2-yl]aniline]",,
395,395,406,"33,000 mol^−1cm^−1","33,000 mol^−1cm^−1","31,000 mol^−1cm^−1",472,507,522,"CCCCCCN(CCCCCC)c1ccc(-c2ccc(-c3ncccn3)s2)cc1 [Compound 5, N,N-dihexyl-4-[5-(pyrimidine-2-yl)thiophene-2-yl]aniline]",,

# Further lines, the compound ahead of its results:
SMILES,"Maximum absorption wavelength [4, 8] [nm]","Maximum absorption wavelength [4, 9] [nm]","Maximum absorption wavelength [4, 10] [nm]","Molar absorption coefficient ([4]; 1,4-Dioxane, ET(30) 36.0)","Molar absorption coefficient ([4]; Acetone, ET(30) 42.2)","Molar absorption coefficient ([4]; DMSO, ET(30) 45.1)","Maximum fluorescence emission wavelength ([5]; 1,4-Dioxane, ET(30) 36.0) [nm]","Maximum fluorescence emission wavelength ([5]; Acetone, ET(30) 42.2) [nm]","Maximum fluorescence emission wavelength ([5]; DMSO, ET(30) 45.1) [nm]",Cell staining pattern [2],other results
"CCCCCCN(CCCCCC)c1ccc(-c2ccc(-c3cc[n+](C)cc3)s2)cc1.O=S(=O)([O-])C(F)(F)F [Compound 10, {4-[5-(4-dihexylamino)phenyl]thiophene-2-yl}-1-methylpyridinium trifluoromethane sulfonate]",,,,,,,,,,the cell membrane and mitochondria were selectively stained,Fluorescence wavelength response to local environment [1]: respond sensitively to the local environment in terms of fluorescence wavelength; Emitted light color by location in cell [3]: different for the cell membrane (1 in the figure) and mitochondria
CCCCCCCCN(CCCCCCCC)c1ccc(-c2ccc(-c3cc[n+](C)cc3)s2)cc1.O=S(=O)([O-])C(F)(F)F [Compound 23],,,,,,,,,,the entire cell was stained with fluorescence but the fluorescence intensity was low and the stain was not even,
CN(C)c1ccc(-c2ccc(-c3ccc(S(=O)(=O)OCC(C)(C)C)cc3)s2)cc1 [reference compound],,,,,,,,,,,"Cell staining [6, 11]: the cell membrane was selectively labeled with fluorescence; Change of fluorescence wavelength between cell sections [6, 11]: remained almost unchanged"
CCN(CC)c1ccc(-c2ccc(-c3cc[n+](C)cc3)s2)cc1.O=S(=O)([O-])C(F)(F)F [Compound 21],,,,,,,,,,Entire cells were stained with fluorescence,
"CCCCN(CCCC)c1ccc(-c2ccc(-c3cc[n+](C)cc3)s2)cc1.O=S(=O)([O-])C(F)(F)F [Compound 22, 4-[5-(4-dibutylamino)phenyl]thiophene-2-O-1-methylpyridinium trifluoromethane sulfonate]",,,,,,,,,,the cell membrane and mitochondria were selectively stained,
"CCCCCCN(CCCCCC)c1ccc(-c2ccc(-c3cc[n+](C)cc3)s2)cc1.F[B-](F)(F)F [Compound 7, 4-[5-(4-dihexylamino)phenyl]thiophene-2-yl-1-methylpyridinium tetrafluoroborate]",,,,,,,,,,,"Cell staining ([6]; 2×10^−5 M in DMSO, five minutes, room temperature, argon laser 488 nm, FIG. 7): cell membranes of colon cancer cells T84 are stained; Laser caused fading ([6]; confocal laser microscope, conditions of the experiment): did not undergo laser caused fading"
